Assay results taken from PubChem BioAssay AID272 (DTP/NCI, 2004).
Where “and” joins values, the source holds several entries; their conditions need not be identical. Equal entries are not always repeated. Inconclusive results are not listed.

System: Lewis lung carcinoma i.m., BDF1 mice, T/C %
Experiment: NCI In Vivo Anticancer Drug Screen. Data for tumor model Lewis Lung Carcinoma (intramuscular) in B6D2F1 (BDF1) mice
Summary of the method: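 Compound given to mice with transplantable tumours; survival or tumour size compared against the vehicle control group, reported as T divided by C.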

With NC(Cc1ccc(N(CCCl)CCCl)cc1)C(=O)O (stereo unspecified) the T/C (endpoint: mean tumor weight, dose: 1.0 mg/kg/injection, schedule: Q01DX011 (ip), vehicle: Klucel (hydroxypropylcellulose) (HPC), higher = larger tumour) was 76 % of control, the T/C (endpoint: mean tumor weight, dose: 2.0 mg/kg/injection, schedule: Q01DX011 (ip), vehicle: Klucel (hydroxypropylcellulose) (HPC), higher = larger tumour) was 99 % of control and the T/C (endpoint: mean tumor weight, dose: 4.0 mg/kg/injection, schedule: Q01DX011 (ip), vehicle: Klucel (hydroxypropylcellulose) (HPC), higher = larger tumour) was 52 % of control. The T/C (endpoint: median survival time, dose: 1.0 mg/kg/injection, schedule: Q01DX011 (ip), vehicle: Klucel (hydroxypropylcellulose) (HPC), higher = longer survival) was 110 % of control and the T/C (endpoint: median survival time, dose: 2.0 mg/kg/injection, schedule: Q01DX011 (ip), vehicle: Klucel (hydroxypropylcellulose) (HPC), higher = longer survival) was 102 % of control.
In the case of COC1N(C2CC(O)C(CO)O2)C(=O)NC(=O)C1(F)Br (stereo unspecified), the T/C (endpoint: mean tumor weight (est.), dose: 5.0 mg/kg/injection, schedule: Q01DX011 (ip), vehicle: saline, higher = larger tumour) is reported as 87 % of control, the T/C (endpoint: mean tumor weight (est.), dose: 10.0 mg/kg/injection, schedule: Q01DX011 (ip), vehicle: saline, higher = larger tumour) is reported as 29 % of control and the T/C (endpoint: mean tumor weight (est.), dose: 20.0 mg/kg/injection, schedule: Q01DX011 (ip), vehicle: saline, higher = larger tumour) is reported as 7 % of control. The T/C (endpoint: median survival time, dose: 5.0 mg/kg/injection, schedule: Q01DX011 (ip), vehicle: saline, higher = longer survival) was 103 % of control.
For C=C(C(=O)OC1CC2CCC(C1)N2C)c1ccccc1 (stereo unspecified), the T/C (endpoint: median survival time, dose: 7.5 mg/kg/injection, schedule: Q01DX011 (ip), vehicle: saline, higher = longer survival) was 119 % of control.
In the case of CC[n+]1ccc(Nc2ccc(NC(=O)c3ccc(Nc4cc[n+](CC)c5ccc(N)cc45)cc3)cc2)cc1, the T/C (endpoint: mean tumor weight, dose: 0.12 mg/kg/injection, schedule: Q01DX011 (ip), vehicle: water, higher = larger tumour) is reported as 109 % of control, the T/C (endpoint: mean tumor weight, dose: 0.25 mg/kg/injection, schedule: Q01DX011 (ip), vehicle: water, higher = larger tumour) is reported as 83 % of control and the T/C (endpoint: mean tumor weight, dose: 0.5 mg/kg/injection, schedule: Q01DX011 (ip), vehicle: water, higher = larger tumour) is reported as 87 % of control. For the same compound, the T/C (endpoint: mean tumor weight, dose: 1.0 mg/kg/injection, schedule: Q01DX011 (ip), vehicle: water, higher = larger tumour) was 100 % of control, the T/C (endpoint: mean tumor weight, dose: 2.0 mg/kg/injection, schedule: Q01DX011 (ip), vehicle: water, higher = larger tumour) was 67 % of control and the T/C (endpoint: median survival time, dose: 0.12 mg/kg/injection, schedule: Q01DX011 (ip), vehicle: water, higher = longer survival) was 88 % of control. The T/C (endpoint: median survival time, dose: 0.25 mg/kg/injection, schedule: Q01DX011 (ip), vehicle: water, higher = longer survival) was 88 % of control, the T/C (endpoint: median survival time, dose: 0.5 mg/kg/injection, schedule: Q01DX011 (ip), vehicle: water, higher = longer survival) was 92 % of control and the T/C (endpoint: median survival time, dose: 0.88 mg/kg/injection, schedule: Q01DX007 (sc), vehicle: saline, higher = longer survival) was 87 % of control. The T/C (endpoint: median survival time, dose: 1.0 mg/kg/injection, schedule: Q01DX011 (ip), vehicle: water, higher = longer survival) was 104 % of control, the T/C (endpoint: median survival time, dose: 1.5 mg/kg/injection, schedule: Q01DX007 (sc), vehicle: saline, higher = longer survival) was 110 % of control and the T/C (endpoint: median survival time, dose: 2.0 mg/kg/injection, schedule: Q01DX011 (ip), vehicle: water, higher = longer survival) was 106 % of control. For the same compound, the T/C (endpoint: median survival time, dose: 2.5 mg/kg/injection, schedule: Q01DX007 (sc), vehicle: saline, higher = longer survival) was 112 % of control, the T/C (endpoint: median survival time, dose: 4.1 mg/kg/injection, schedule: Q01DX007 (sc), vehicle: saline, higher = longer survival) was 89 % of control and the T/C (endpoint: median survival time, dose: 6.8 mg/kg/injection, schedule: Q01DX007 (sc), vehicle: saline, higher = longer survival) was 66 % of control.
In the case of O=NN(CCCl)C(=O)NCc1ccc(-c2ccc(CNC(=O)N(CCCl)N=O)cc2)cc1, the T/C (endpoint: median survival time, dose: 108.0 mg/kg/injection, schedule: Q07DX003 (ip), vehicle: Klucel (hydroxypropylcellulose) (HPC), higher = longer survival) is reported as 104 % of control and the T/C (endpoint: median survival time, dose: 180.0 mg/kg/injection, schedule: Q07DX003 (ip), vehicle: Klucel (hydroxypropylcellulose) (HPC), higher = longer survival) is reported as 93 % of control.
In the case of O=P1(NCCCl)OCCCN1CCCl (stereo unspecified), the T/C (endpoint: mean tumor weight, dose: 23.0 mg/kg/injection, schedule: Q01DX011 (ip), vehicle: water, higher = larger tumour) is reported as 101 % of control, the T/C (endpoint: mean tumor weight, dose: 39.0 mg/kg/injection, schedule: Q01DX011 (ip), vehicle: water, higher = larger tumour) is reported as 66 % of control and the T/C (endpoint: mean tumor weight, dose: 108.0 mg/kg/injection, schedule: Q01DX001 (ip), vehicle: water, higher = larger tumour) is reported as 72 % of control. For the same compound, the T/C (endpoint: mean tumor weight, dose: 180.0 mg/kg/injection, schedule: Q01DX001 (ip), vehicle: water, higher = larger tumour) was 14 % of control, the T/C (endpoint: median survival time, dose: 23.0 mg/kg/injection, schedule: Q01DX011 (ip), vehicle: water, higher = longer survival) was 118 % of control and 122 % of control and the T/C (endpoint: median survival time, dose: 39.0 mg/kg/injection, schedule: Q01DX011 (ip), vehicle: water, higher = longer survival) was 94 % of control and 124 % of control. The T/C (endpoint: median survival time, dose: 65.0 mg/kg/injection, schedule: Q07DX Z (ip), vehicle: water, higher = longer survival) was 110 % of control, the T/C (endpoint: median survival time, dose: 108.0 mg/kg/injection, schedule: Q01DX001 (ip), vehicle: water, higher = longer survival) was 88 % of control and 98 % of control and the T/C (endpoint: median survival time, dose: 108.0 mg/kg/injection, schedule: Q01DX011 (ip), vehicle: water, higher = longer survival) was 104 % of control. For the same compound, the T/C (endpoint: median survival time, dose: 108.0 mg/kg/injection, schedule: Q04DX Z (ip), vehicle: water, higher = longer survival) was 98 % of control, the T/C (endpoint: median survival time, dose: 108.0 mg/kg/injection, schedule: Q07DX Z (ip), vehicle: water, higher = longer survival) was 112 % of control and the T/C (endpoint: median survival time, dose: 180.0 mg/kg/injection, schedule: Q01DX001 (ip), vehicle: water, higher = longer survival) was 114 % of control. The T/C (endpoint: median survival time, dose: 180.0 mg/kg/injection, schedule: Q07DX Z (ip), vehicle: water, higher = longer survival) was 104 % of control, the T/C (endpoint: median survival time, dose: 300.0 mg/kg/injection, schedule: Q01DX001 (ip), vehicle: water, higher = longer survival) was 164 % of control and 178 % of control and the T/C (endpoint: median survival time, dose: 300.0 mg/kg/injection, schedule: Q04DX Z (ip), vehicle: water, higher = longer survival) was 120 % of control. The T/C (endpoint: median survival time, dose: 300.0 mg/kg/injection, schedule: Q07DX Z (ip), vehicle: water, higher = longer survival) was 158 % of control.
For FC(F)(F)c1ccc(-c2ccc(OCCN3CCCC3)cc2)cc1, the T/C (endpoint: mean tumor weight, dose: 3.13 mg/kg/injection, schedule: Q01DX011 (ip), vehicle: saline, higher = larger tumour) was 57 % of control, the T/C (endpoint: mean tumor weight, dose: 6.25 mg/kg/injection, schedule: Q01DX011 (ip), vehicle: saline, higher = larger tumour) was 62 % of control and the T/C (endpoint: median survival time, dose: 3.13 mg/kg/injection, schedule: Q01DX011 (ip), vehicle: saline, higher = longer survival) was 104 % of control. The T/C (endpoint: median survival time, dose: 6.25 mg/kg/injection, schedule: Q01DX011 (ip), vehicle: saline, higher = longer survival) was 100 % of control.
For N#C[C@@H]1C2C=CC(CC2)[C@H]1C#N, the T/C (endpoint: mean tumor weight (est.), dose: 0.15 mg/kg/injection, schedule: Q01DX011 (ip), vehicle: saline, higher = larger tumour) was 56 % of control, the T/C (endpoint: mean tumor weight (est.), dose: 0.3 mg/kg/injection, schedule: Q01DX011 (ip), vehicle: saline, higher = larger tumour) was 83 % of control and the T/C (endpoint: mean tumor weight (est.), dose: 0.6 mg/kg/injection, schedule: Q01DX011 (ip), vehicle: saline, higher = larger tumour) was 98 % of control. The T/C (endpoint: mean tumor weight (est.), dose: 1.2 mg/kg/injection, schedule: Q01DX011 (ip), vehicle: saline, higher = larger tumour) was 95 % of control.
CCCCCCCCCCCC(c1ccccc1)[N+](C)(C)C (stereo unspecified) was tested, and the T/C (endpoint: mean tumor weight (est.), dose: 2.0 mg/kg/injection, schedule: Q01DX011 (ip), vehicle: saline, higher = larger tumour) was 89 % of control, the T/C (endpoint: mean tumor weight (est.), dose: 4.0 mg/kg/injection, schedule: Q01DX011 (ip), vehicle: saline, higher = larger tumour) was 76 % of control and the T/C (endpoint: median survival time, dose: 2.0 mg/kg/injection, schedule: Q01DX011 (ip), vehicle: saline, higher = longer survival) was 104 % of control. For the same compound, the T/C (endpoint: median survival time, dose: 4.0 mg/kg/injection, schedule: Q01DX011 (ip), vehicle: saline, higher = longer survival) was 108 % of control.
With CCC[CH2][Sn]1([CH2]CCC)[O]OC(c2ccccc2)[O]1 (stereo unspecified) the T/C (endpoint: median survival time, dose: 0.5 mg/kg/injection, schedule: Q01DX009 (ip), vehicle: saline, higher = longer survival) was 107 % of control, the T/C (endpoint: median survival time, dose: 1.0 mg/kg/injection, schedule: Q01DX009 (ip), vehicle: saline, higher = longer survival) was 114 % of control and the T/C (endpoint: median survival time, dose: 2.0 mg/kg/injection, schedule: Q01DX009 (ip), vehicle: saline, higher = longer survival) was 106 % of control. The T/C (endpoint: median survival time, dose: 4.0 mg/kg/injection, schedule: Q01DX009 (ip), vehicle: saline, higher = longer survival) was 113 % of control.
With COC(=O)C[C@](O)(CCCC(C)(C)O)C(=O)O[C@@H]1C(OC)=C[C@]23CCCN2CCc2cc4c(cc2[C@H]13)OCO4 the T/C (endpoint: mean tumor weight (est.), dose: 0.25 mg/kg/injection, schedule: Q01DX011 (ip), vehicle: saline, higher = larger tumour) was 60 % of control, the T/C (endpoint: mean tumor weight (est.), dose: 0.5 mg/kg/injection, schedule: Q01DX011 (ip), vehicle: saline, higher = larger tumour) was 57 % of control and the T/C (endpoint: median survival time, dose: 0.25 mg/kg/injection, schedule: Q01DX011 (ip), vehicle: saline, higher = longer survival) was 93 % of control.
Oc1ccc(I)c2cccnc12 was tested, and the T/C (endpoint: mean tumor weight (est.), dose: 100.0 mg/kg/injection, schedule: Q01DX011 (ip), vehicle: saline, higher = larger tumour) was 109 % of control and the T/C (endpoint: median survival time, dose: 100.0 mg/kg/injection, schedule: Q01DX011 (ip), vehicle: saline, higher = longer survival) was 95 % of control.
Nc1nc(Cl)nc2c1ncn2C1CC(O)C(CO)O1 (stereo unspecified) was tested, and the T/C (endpoint: median survival time, dose: 8.0 mg/kg/injection, schedule: Q01DX Z (ip), vehicle: other, higher = longer survival) was 93 % of control and 95 % of control, the T/C (endpoint: median survival time, dose: 16.0 mg/kg/injection, schedule: Q01DX Z (ip), vehicle: other, higher = longer survival) was 113 % of control and the T/C (endpoint: median survival time, dose: 32.0 mg/kg/injection, schedule: Q01DX Z (ip), vehicle: other, higher = longer survival) was 86 % of control.
With CC(C)n1c2c([n+](C)c1/C=C/c1ccccc1)C(=O)c1ccccc1C2=O the T/C (endpoint: mean tumor weight (est.), dose: 1.0 mg/kg/injection, schedule: Q01DX011 (ip), vehicle: saline with Tween-80, higher = larger tumour) was 43 % of control.
In the case of COc1cccc2c1C(=O)c1c(O)c3c(c(O)c1C2=O)C[C@@](O)(C(=O)COC(=O)Cc1cccc2ccccc12)C[C@@H]3OC1CC(N)C(O)C(C)O1 (stereo partly specified), the T/C (endpoint: median survival time, dose: 0.25 mg/kg/injection, schedule: Q01DX011 (ip), vehicle: other, higher = longer survival) is reported as 124 % of control, the T/C (endpoint: median survival time, dose: 0.5 mg/kg/injection, schedule: Q01DX011 (ip), vehicle: other, higher = longer survival) is reported as 108 % of control and the T/C (endpoint: median survival time, dose: 1.0 mg/kg/injection, schedule: Q01DX011 (ip), vehicle: other, higher = longer survival) is reported as 113 % of control.
